Where a name gives a salt, the structure may show the parent alone.
What was measured:
Assay type in all cases: cell-based
[1] = tested on: Mouse preadipocyte strain 3T3-L1; assay: Inhibition of differentiation as an indication of acetic acid uptake; conditions: Mus musculus, 3T3-L1, 0.1 μM test substance, control (0.01% dimethylsulfoxide) = 100%, read-out: Rate of Uptake (%) of [2-14C] acetic acid
Method: As the basal medium, Dulbecco's modified Eagle's (DEM) medium (NISSUI PHARMACEUTICAL CO., LTD) was used. […] All culturing in the present Test Example was carried out in a CO2 incubator at 37° C. and 10% CO2 concentration.
The successively cultured 3T3-L1 cells were inoculated in a Biocoat Collagen I 96-well white/clear plate (Becton Dickinson and Co.) at a concentration of 4,900 cells/well, and were cultured in the basal medium containing added 10% (v/v) inactivated bovine fetal serum (FBS) for 10 days.
The medium was replaced with a differentiation-inducing medium in which inactivated FBS (final concentration: 5%), insulin (Sigma-Aldrich Japan K. K., final concentration: 10 μg/mL), isobutyl methyl xanthine (Aldrich K. K., final concentration: 0.5 mM) and dexamethazone (final concentration: 1 μM) were added so as to be at the final concentrations indicated in the parentheses. The cells were divided in the following 2 groups and were cultured for 4 days; 1) in the presence of 0.01% (v/v) dimethylsulfoxide, and 2) in the presence of 0.01% (v/v) dimethylsulfoxide in which was dissolved 1 mM of the test substance (final concentration of 0.1 μM). Then, the medium was further replaced with a maintenance medium in which inactivated […] and insulin were added to the base medium so as to be at final concentrations of 5% and 100 ng/mL, respectively, and the cells were cultured for 2 days.
The inhibitory activity of the test compound against cell differentiation was assayed by using uptake of [2-^14C] acetic acid into the cultured cells as an indicator. […] Then the cells were further incubated with the newly prepared medium for 1 hr. After washing the well with PBS (−), the cells were dried. To these wells, 100 μL/well of a scintillation cocktail (Hewlett-Packard Co., MICROSCINT-20 PACKARD) were added and their radioactivities were determined with a Packard TopCont microplate Scintillation Counter (Hewlett-Packard Co., PACKARD) and the uptake level of [2-^14C] acetic acid into the cultured cell was calculated.
On the basis of the calculated uptake level of [2-^14C] acetic acid into the cultured cells, the relative uptake level of [2-^14C] acetic acid in the group treated with the test compound was calculated against the uptake level of [2-^14C] acetic acid in the presence of 0.01% (v/v) dimethylsulfoxide solution described in 1) (100%).
Value=Uptake Level (cpm) of [2-^14C] Acetic Acid in the Presence of the Test Substance
Control=Uptake Level (cpm) of [2-^14C] Acetic Acid in the Control Group (0.01% dimethylsulfoxide)
Uptake Rate (%) of [2-^14C] Acetic Acid=100×[Value]/[Control]

[2] = biological target: T1, human PPAR γ 2 (Homo sapiens, UniProt P37231); assay: Inhibitory activity against PPAR γ transcription in the presence of agonist compound A, luciferase reporter; conditions: in the presence of 10 nM compound A (agonist); MG63 cells transfected with pSG5-hPPARg and pGV-P2-PPRE; 24 hr
T1 construct: expressed in transfected cells; host or cells: human osteosarcoma MG63, transiently co-transfected with pSG5-hPPARg and the reporter pGV-P2-PPRE
T1 sequence (P37231 1-505): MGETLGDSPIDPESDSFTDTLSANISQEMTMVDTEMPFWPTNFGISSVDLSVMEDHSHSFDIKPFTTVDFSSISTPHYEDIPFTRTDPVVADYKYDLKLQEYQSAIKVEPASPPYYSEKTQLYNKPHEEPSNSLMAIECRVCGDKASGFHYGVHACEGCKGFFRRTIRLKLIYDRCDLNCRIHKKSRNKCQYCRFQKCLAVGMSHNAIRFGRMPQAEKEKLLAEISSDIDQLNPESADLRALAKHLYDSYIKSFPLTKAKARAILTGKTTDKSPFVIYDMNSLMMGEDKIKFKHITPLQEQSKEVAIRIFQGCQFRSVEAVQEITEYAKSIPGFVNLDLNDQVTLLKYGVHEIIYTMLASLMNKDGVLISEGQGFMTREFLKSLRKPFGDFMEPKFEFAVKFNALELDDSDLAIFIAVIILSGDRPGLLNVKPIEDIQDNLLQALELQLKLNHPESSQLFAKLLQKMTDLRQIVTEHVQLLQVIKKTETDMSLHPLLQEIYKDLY
From the text: The primers of the polymerase chain reaction (hereinafter “PCR”) were designed according to the gene sequence of human PPAR γ 2 (GenBANK accession No. D83233). […] For this, 2 kinds of polynucleotides shown in the sequence numbers 1 and 2 in the sequence table described below (hereinafter “S1” and “AS1”, respectively) were used as PCR primers.
In order to determine transcriptional activity via PPAR γ, 2 kinds of polynucleotides represented in sequence numbers 3 and 4 in the sequence table described below (hereinafter “S2” and “AS2”, respectively) were used for construction of the reporter plasmid having PPAR responsive element. The DNA fragment inserted was designed based on the gene sequence in the promoter region of rat acylCo-A oxidase (J. D. Tugwood, EMBO J., 11 (2), pp433-439 (1992)). For insertion of the DNA fragment into the reporter plasmid pGV-P2 (TOYO INK MFG CO., LTD), a NheI site and an XhoI site were added to the S2 and AS2, respectively.
Using cDNA library (Clontech) derived from human adipose tissue as a template, DNA oligomers S1 and AS1 that were synthesized in the procedure 1 as primers and Ex-Taq™ (TAKARA BIO INC.) as a thermostable DNA polymerase-PCR was carried out. […] Each cycle consisted of incubation at 94° C. for 1 min for denaturation of the template, then at 55° C. for 30 sec for annealing of DNA oligomers the PCR primer, and then at 72° C. for 30 sec for extension of the chain. The obtained DNA fragments with approximately 1500 base pairs were digested at the Bgl II sites and were inserted into BamHI sites of pSG5. Thus a human PPAR γ expression plasmid named pSG5-hPPAR g was obtained.
Vector pGV-P2 digestion products was prepared by digestion using the restriction enzymes, NheI and XhoI, and purified by 1.0% agarose-gel electrophoresis. The DNA oligomers, S2 and AS2 obtained in Procedure 2, were mixed together and were incubated in a hot bath at 94° C. for 1 min. After the annealing was partially broken, they were further incubated at 25° C. for 1 hr. Thus double-stranded DNA with annealing of S2 and AS2 was formed. Then, the terminus of the double-stranded DNA with annealing of S2 and AS2 was phosphorylated with DNA polynucleotide kinase (TOYOBO CO., LTD). After that, it was ligated to the pGV-P2 digestion products which were prepared previously using the NheI site and XhoI site. Thus the reporter plasmid pGV-P2-PPRE was obtained.
Using the plasmid obtained by the procedures 3 and 4, transformation of Escherichia coli HB-101 strain was carried out by conventional methods. HB-101 strain having the plasmid was incubated in L-broth medium (containing 10 g of trypton (Difco), 5 g of yeast extract (Difco), 5 g of sodium chloride in 1 L of aqueous solution) containing 100 μg/ml of ampicillin at 37° C. for 17 hrs. Then, each plasmid was purified by the alkaline-SDS method and employed for the gene transfection to mammalian cells. After mixing the pSG5-hPPARg, PGV-P2-PPRE and LipofectAMINE reagent (GIBCO BRL), the human osteosarcoma MG63 was transiently transfected. Then the cells were recovered. The recovered cells were plated on a 96-well plate so as to be 30,000 cells/well and cultured in a CO2 incubator (NAPCO) at 37° C. for 24 hr under the condition of 5% CO2, 95%-RH.
Ten (10) nM of the following compound A (although compound A is described here as a representative compound, the compound is not limited to compound A, if the compound exerts a PPAR r agonistic activity) and various concentrations of the test compound were added to culturing medium of the cells prepared in the Procedure 5.

[3] = tested on: Rat white adipocytes; assay: Inhibition of the differentiation of adipocytes (Oil Red O); conditions: Rattus norvegicus, Adipocyte, 120 h, 100 nM test compound; 5 days; Oil Red O ABS550; control = 100%, blank = 0%; Table 3; read-out: Rate of Differentiation (%)
Method in brief: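 Rat white preadipocytes, 5,000 cells/well, given differentiation medium with compound at 100 nM final (0.1% DMSO) for 5 days at 37 °C. Lipid stained with Oil Red O, eluted in DMSO, read at 550 nm; differentiation % relative to DMSO control (100%) and blank (0%).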

Question: Cc1nccc(-c2cccc(NC(=O)c3cc([N+](=O)[O-])ccc3Cl)c2)n1 [Example 112, N-[3-(2-Methylpyrimidin-4-yl)phenyl]-(2-chloro-5-nitrophenyl)carboxamide] was tested. Which activity at 0.1 µM [1] did it give?
Answer: The activity at 0.1 µM was 82.3%.

Question: What about the IC50 [2] of the same compound?
Answer: The IC50 was 14 nM.

Question: How did the IC50 [2] turn out when CCS(=O)(=O)Nc1ccc(NC(=O)c2cc([N+](=O)[O-])ccc2Cl)cc1 [Example 129, N-(4-Ethanesulfonylaminophenyl)-(2-chloro-5-nitrophenyl)carboxamide] was run?
Answer: The IC50 was 26 nM.

Question: O=C(Nc1ccc(C(=O)N2CCOCC2)cc1)c1cc([N+](=O)[O-])ccc1Cl [Example 158, N-[4-(Morpholin-4-ylcarbonyl)phenyl]-(2-chloro-5-nitrophenyl)carboxamide] was tested. Which IC50 [2] did it give?
Answer: Its IC50 is 82 nM.

Question: What does the source list for CCCCCCCCN(CCCCC)c1ccc(-c2ccc(NC(=O)c3cc([N+](=O)[O-])ccc3Cl)cc2)cc1 [Example 221, N-[4-[4-(N-Octyl-N-pentylamino)phenyl]phenyl]-(2-chloro-5-nitrophenyl)carboxamide mono-hydrochloride]?
Answer: activity at 0.1 µM [3]: 40.2%; IC50 [2]: 34 nM

Question: What does the source list for O=C(Nc1ccc(N2CCN(C(=O)c3cccnc3)CC2)cc1)c1cc([N+](=O)[O-])ccc1Cl [Example 227, N-[4-[4-(Pyridin-3-ylcarbonyl)piperazin-1-yl]phenyl]-2-(chloro-5-nitrophenyl)carboxamide]?
Answer: activity at 0.1 µM [3]: 39.7%; IC50 [2]: 81 nM

Question: How did the activity at 0.1 µM [3] turn out when CC(O)c1ccc(NC(=O)c2cc([N+](=O)[O-])ccc2Cl)cc1 (stereo not shown) [Example 238, N-[4-(1-Hydroxyethyl)phenyl]-(2-chloro-5-nitrophenyl)carboxamide] was run?
Answer: The activity at 0.1 µM was 64%.

Question: And the IC50 [2]?
Answer: The IC50 was 9.3 nM.

Question: What does the source list for O=C(Nc1ccc(-c2ccc(NC(=S)Nc3cccnc3)cc2)cc1)c1cc([N+](=O)[O-])ccc1Cl [Example 256, N-[4-[4-[(Pyridin-3-yl)aminothiocarbonylamino]phenyl]phenyl)-(2-chloro-5-nitrophenyl)carboxamide]?
Answer: activity at 0.1 µM [3]: 38.2%; IC50 [2]: 12 nM

Question: What does the source list for O=C(NCCc1ccc(NC(=O)c2cc([N+](=O)[O-])ccc2Cl)cc1)Nc1ccccc1 [Example 268, N-[4-(2-Phenylaminocarbonylaminoethyl)phenyl]-(2-chloro-5-nitrophenyl)carboxamide]?
Answer: activity at 0.1 µM [3]: 54.8%; IC50 [2]: 25 nM

Question: How did the activity at 0.1 µM [3] turn out when O=C(Nc1ccc(CCNC(=S)Nc2ccccc2)cc1)c1cc([N+](=O)[O-])ccc1Cl [Example 269, N-[4-(2-Phenylaminothiocarbonylaminoethyl)phenyl]-(2-chloro-5-nitrophenyl)carboxamide] was run?
Answer: Its activity at 0.1 µM is 52.9%.

Question: And the IC50 [2]?
Answer: Its IC50 is 30 nM.

Source: US20030134859A1 (SANKYO COMPANY, LIMITED, priority 2000, published 2003)
